# Values of other authors, collected in patent publication US8329231B2, “Method of preventing photo-aging with ashwagandha and Indian gooseberry” (Nutragenesis, LLC, priority 2008, dated 2012).
# Conditions: values from the literature
compound,measurement,value
O=C1O[C@H]([C@@H](O)CO)C(O)=C1O [Vitamin C],"HORAC (published, literature)",0 units
